Experiments:
Type in all cases: in vivo
[1] = tested on: Phytophthora cinnamomi; experiment: Example 2: spray treatment of boxwoods challenged with Phytophthora cinnamomi; settings: boxwood, P. cinnamomi; for Dry Root Weight / Fresh Shoot Weight: mean of 5; for Marketability: 1(dead)-5(excellent) Scale: G41 4 oz, T22 4 oz, mefenoxam 1 oz/100 gal; for Marketability: 1(dead)-5(excellent) Scale / Height: mean of 10
Method: (§1) Except for the non-inoculated controls, each plant was treated with P. cinnamomi inoculum to induce disease. Boxwood plants were obtained from a local nursery and placed into a 6 inch diameter pot containing pine bark: peat (3:1 volume:volume) potting media. The medium was amended with 14 lb of 17-7-12 Osmocote fertilizer per cubic yard of mix.
(§2) Inoculum of P. cinnamomi was grown on sterilized rice grains for 14 days at 24-26° C. prior to inoculation. To treat the plants with the pathogen inoculum, four holes were punched equidistant around the root ball, and four colonized rice grains were inserted in each hole. Each of the test materials was applied at the specified rate to the soil surface, using a 2.5 pint hand held sprayer. The chemical standard, mefenoxam (Subdue®), was applied to the soil surface 24 hours after the plant roots were inoculated with P. cinnamomi inoculum. T22 and G41 were applied to the soil surface 72 hours prior to root inoculation with P. cinnamomi.
(§3) A marketability rating was determined for each plant at one day after inoculation (DAI) with P. cinnamomi, 22 days DAI, and 54 days DAI. Using the following scale, each plant was rated by three researchers and the mean value was determined for each plant: • 1: Dead plants • 2: Poor, unsalable (severe chlorosis and poor top growth) • 3: Moderate, salable (slight chlorosis and/or stunting; plant growth between 2 and 4) • 4: Salable (few individual leaves with chlorosis, green foliage; plant growth between 3 and 5) • 5: Excellent health, salable (no chlorosis; optimum top growth)
(§4) At 1, 22, and 54 DAI, plant height was measured from the crown to the highest point of the plant. Dry root weight and fresh shoot weight were determined at 22 and 54 DAI.
(§5) At 22 DAI, a subset of plants from each treatment were removed and examined. Plants were removed from the pots, and excess soil was carefully brushed from the roots. Above ground portions (shoots) were cut away from the below ground portions and dried in an oven. Dry root weights and fresh shoot weights were recorded. At 54 DAI, the experiment was terminated; the remaining plants were treated as above to determine dry root and shoot weights. Data were subjected to analysis of variance and treatment means were separated by Student-Newman-Keuls test at P=0.05.
Except for the non-inoculated controls, each plant was treated with P. cinnamomi inoculum to induce disease. The methodology for this test was identical to that described in Example 1.

[2] = tested on: Pythium aphanidermatum; experiment: Example 6: cucumber seed coating against Pythium aphanidermatum damping-off; settings: P. aphanidermatum inoculum, greenhouse
Method: Cucumber, Cucumis sativus, var Marketmore 76 seeds were coated with T harzianum and/or T. virens, or mefenoxam as described by Pill et al. (Pill et. al., Scientia Horticulturae 121:54-62 (2009), which is hereby incorporated by reference in its entirety). Seeds were planted into flats with or without P. aphanidermatum inoculum. The experiment was conducted in a greenhouse with natural lighting and temperature settings of 25/22° C. (day/night). The numbers of seedlings emerged were recorded daily until there was no increase for two consecutive days. Diseased plants were recorded as either pre- (no seedling emergence) or post-emergent (shoot lodging).

[3] = tested on: Phytophthora nicotianae; experiment: Example 3: spray treatment of azaleas challenged with Phytophthora nicotianae; settings: azalea, P. nicotianae; for Dry Root Weight / Fresh Shoot Weight: mean of 5; for Marketability: 1(dead)-5(excellent) Scale: G41 4 oz, T22 4 oz, mefenoxam 1 oz/100 gal; for Marketability: 1(dead)-5(excellent) Scale / Height: mean of 10
Method: as §2, §3, §4, §5
Except for the non-inoculated controls, each plant was treated with P. nicotianae inoculum to induce disease. The methodology for this test was identical to that described in Example 1.

[4] = tested on: Rhizoctonia solani; experiment: Example 7: soil drench of tomato seedlings challenged with Rhizoctonia solani; settings: R. solani, 23 DAI, biologicals 4 oz, mefenoxam 1 oz/100 gal, mean of 28 plants
Method: Tomato, Lycopersicon esculentum, var esculentum ‘Beefsteak’, seedlings were subjected to the soil drench treatments set forth in Table 13, except that there were no untreated control plants. Except for the non-inoculated controls, each plant was treated with inoculum of the pathogen R. solani to induce disease.
Tomato seedlings were grown and treated as described above in Example 2. Sterile rice was inoculated with agar plugs from PDA Petri plates containing growing colonies of R. solani at a rate of one colonized PDA plate/500 g rice. Rice was incubated for 10 days at 24-26° C. Infested rice was uniformly blended into the growing medium at a rate of 5% (weight: weight).
Tomato seedlings were transplanted into 4 inch pots that contained the pathogen inoculum on rice. The untreated check plants became contaminated with an unknown disease and were not included in the analysis. A set of seedlings was drenched with the label rate of mefenoxam to serve as the chemical standard and a set of treated control seedlings was transplanted into medium containing the pathogen.
Plants were maintained in a growing room at 20-24° C. under a 12 hour light: dark cycle. Plants were watered with a nutrient solution as described above. […] The material was dried in an oven at 60° C. until completely dry (approximately 24 hours) and the weights recorded. Data were analyzed as described in Example 2, above.

[5] = tested on: Fusarium oxysporum f. sp. lycopersici; experiment: Example 8 Experiment 2: soil drench of tomato seedlings challenged with Fusarium oxysporum (T12 and G41); settings: 28 DAI, biologicals 4 oz, mefenoxam 1 oz/100 gal, mean of 14 plants
Method: (§6) Tomato, Lycopersicon esculentum, var esculentum ‘Beefsteak’, seedlings were subjected to the soil drench treatments set forth in Table 13. Except for the non-inoculated controls, each plant was treated with inoculum of the pathogen F. oxysporum f. sp. lycopersici to induce disease.
(§7) Tomatoes were started in 128-cell flats from seeds in a general purpose, peat-based growing medium. Plants were watered with a 100 ppm solution of 20-20-20 water-soluble plant food (Jack's Classic). At 4-5 days after planting, the seedlings were drenched with the biological materials mixed in water. Seedlings not receiving treatments at this time were treated only with the blank formulation (without Trichoderma).
(§8) Inoculum of F. oxysporum was grown on sterilized rice grains for 7 days at 24-26° C. The rice was uniformly blended into growing medium at a rate of 5% (weight: weight). Seven day old tomato seedlings were transplanted into 4 inch pots that contained the pathogen inoculum on rice. A set of untreated control seedlings were transplanted into pots containing the growing medium plus uninoculated rice. […]
Plants were maintained in a growing room at 20-24° C. under a 12 hour light: dark cycle. […] The material was dried in an oven at 60° C. until completely dry (approximately 24 hours) and the weights recorded. […] Significant differences between treatment means were determined using Tukey's HSD test at P=0.05. […]

[6] = tested on: Pythium irregulare; experiment: Example 8 Experiment 1: soil drench of cucumber seedlings challenged with Pythium irregulare (T22 and G21); settings: 28 DAI, biologicals 4 oz, mefenoxam 1 oz/100 gal, mean of 14 plants
Method: Except for the non-inoculated controls, each plant was treated with inoculum of the pathogen Pythium irregulare to induce disease.
(§9) Seedlings were grown and treated as described in Example 4. Sterile rice was inoculated with a suspension of P. irregulare at the rate of one colonized PDA Petri plate/1 liter of sterile water. Rice was incubated for 24 hours at 24-26° C. Infested rice was uniformly blended into the growing medium at a rate of 5% (weight: weight).
(§10) Cucumber seedlings were transplanted into 4 inch pots that contained the pathogen inoculum on rice. A set of untreated control seedlings were transplanted into pots containing the growing medium plus rice, but no pathogen. A set of seedlings was drenched with the label rate of mefenoxam to serve as the chemical standard and a set of treated control seedlings was transplanted into medium containing the pathogen.
Plants were maintained in a growing room at 20-24° C. under a 12 hour light: dark cycle. At 28 DAI, the experiment was terminated, and the plants were each separated into two parts: root (below ground) and shoot (above ground). The material was dried in an oven at 60° C. until completely dry (approximately 24 hours) and the weights recorded. Data were analyzed as described in Example 4.

[7] = tested on: Fusarium oxysporum f. sp. lycopersici; experiment: Example 4: soil drench of tomato seedlings challenged with Fusarium oxysporum; settings: 28 DAI, biologicals 4 oz, mefenoxam 1 oz/100 gal, mean of 28 plants
Method: as §6, §7, §8
Plants were maintained in a growing room at 20-24° C. under a 12 hour light: dark cycle. […] The material was dried in an oven at 60° C. until completely dry (approximately 24 hours) and the weights recorded. […] Significant differences between treatment means were determined using Tukey's HSD test at P=0.05.

[8] = tested on: Phytophthora cinnamomi; experiment: Example 1: soil treatment of boxwoods inoculated with P. cinnamomi; settings: boxwood; for Marketability: 1(dead)-5(excellent) Scale: G41 8 oz, mefenoxam 1 oz/100 gal, mean of 10
Method: as §1, §2, §3, §4, §5

[9] = tested on: Pythium irregulare; experiment: Example 5: soil drench of tomato seedlings challenged with Pythium irregulare; settings: 21 DAI, biologicals 4 oz, mefenoxam 1 oz/100 gal, mean of 28 plants
Method: Tomato, Lycopersicon esculentum, var esculentum ‘Beefsteak’, seedlings were subjected to the soil drench treatments set forth in Table 13. Except for the non-inoculated controls, each plant was treated with inoculum of the pathogen Pythium irregulare to induce disease.
as §9, with “Tomato seedlings” for “Seedlings”, “described above” for “described”, “2.” for “4.”, “1” for “one”
as §10, with “Tomato” for “Cucumber”
Plants were maintained in a growing room at 20-24° C. under a 12 hour light: dark cycle. Plants were watered with a nutrient solution as described above. […] The material was dried in an oven until completely dry (approximately 24 hours) and the weights recorded.

SMILES: COCC(=O)N(c1c(C)cccc1C)[C@H](C)C(=O)OC [Mefenoxam, mefenoxam]
- Dry Root Weight ([1]; 1/13): 96.0 ab g
- Fresh Shoot Weight ([1]; 1/13): 81.6 a g
- Dry Root Weight ([1]; 12/12): 76.4 a g
- Fresh Shoot Weight ([1]; 12/12): 64.8 a g
- Marketability: 1(dead)-5(excellent) Scale ([1]; Dec. 12, 2004): 4.6 a
- Height ([1]; Dec. 12, 2004): 34.6 ab cm
- Marketability: 1(dead)-5(excellent) Scale ([1]; Jan. 13, 2005): 4.7 ab
- Height ([1]; Jan. 13, 2005): 36.7 ab cm
- Marketability: 1(dead)-5(excellent) Scale ([1]; Nov. 21, 2004): 5.0 a
- Height ([1]; Nov. 21, 2004): 13.3 ab cm
- Percent Damping-Off, Pre-emergence [2]: 4.6 bc Percent
- Percent Damping-Off, Total [2]: 9.3 c Percent
- Dry Root Weight ([3]; 6/21): 44.2 a g
- Fresh Shoot Weight ([3]; 6/21): 49.0 ab g
- Dry Root Weight ([3]; 7/10): 55.5 ab g
- Fresh Shoot Weight ([3]; 7/10): 70.3 ab g
- Marketability: 1(dead)-5(excellent) Scale ([3]; Dec. 17, 2004): 4.4 ab
- Height ([3]; Dec. 17, 2004): 27.5 ab cm
- Marketability: 1(dead)-5(excellent) Scale ([3]; Jan. 6, 2005): 4.4 ab
- Height ([3]; Jan. 6, 2005): 35.5 ab cm
- Marketability: 1(dead)-5(excellent) Scale ([3]; Nov. 25, 2004): 5 a
- Height ([3]; Nov. 25, 2004): 13.7 a cm
- Dry Root Weight [4]: 0.06 b g
- Dry Shoot Weight [4]: 0.42 c g
- Dry Root Weight [5]: 0.03 b g
- Dry Shoot Weight [5]: 0.17 c g
- Dry Root Weight [6]: 0.10 abc g
- Dry Shoot Weight [6]: 0.66 ab g
- Dry Root Weight [7]: 0.12 bc g
- Dry Shoot Weight [7]: 0.90 bc g
- Marketability: 1(dead)-5(excellent) Scale ([8]; 5/26, T22 4 oz): 5 a
- Height ([8]; 5/26, mean of 10): 13.8 a cm
- Marketability: 1(dead)-5(excellent) Scale ([8]; 6/21, T22 4 oz): 4.4 a
- Dry Root Weight ([8]; 6/21, mean of 5): 16.7 a g
- Fresh Shoot Weight ([8]; 6/21, mean of 5): 86.2 a g
- Height ([8]; 6/21, mean of 10): 39.7 a cm
- Marketability: 1(dead)-5(excellent) Scale ([8]; 7/10, T22 4 oz): 4.7 a
- Dry Root Weight ([8]; 7/10, mean of 5): 30.1 a g
- Fresh Shoot Weight ([8]; 7/10, mean of 5): 108.3 a g
- Height ([8]; 7/10, mean of 10): 39.8 a cm
- Dry Root Weight [9]: 0.04 c g
- Dry Shoot Weight [9]: 0.28 g·days
